Reference: patent US6720342B2, “Heterocyclic compounds and their preparation and use” (Novo Nordisk A/S, priority 1996, dated 2004)
pIC50: −log10 of the molar value. Structures can show the parent of a compound that is named as a salt.

Experiments:
[1] = molecular target: muscarinic acetylcholine receptors; assay: Inhibition of specific binding of 3H-Oxotremorine-M (3H-Oxo) to rat cortex membranes; settings: rat cortex homogenate, 1.0 nM 3H-Oxotremorine, 30 min at 25° C.
Text: The pharmacological properties of the compounds of the invention can be illustrated by determining their capability to inhibit the specific binding of ^3H-Oxotremorine-M (^3H-Oxo). Birdsdall N. J. M., Hulme E. C., and Burgen A. S. V. (1980). “The Character of Muscarinic Receptors in Different Regions of the Rat Brain”. Proc. Roy. Soc. London (Series B) 207, 1.
^3H-Oxo labels muscarinic receptor in the CNS (with a preference for agonist domains of the receptors). Three different sites are labelled by ^3H-Oxo. […] Using the present experimental conditions only the high and medium affinity sites are determined.
The inhibitory effects of compounds on ^3H-Oxo binding reflects the affinity for muscarinic acetylcholine receptors.
(§1) All preparations are performed at 0-4° C. unless otherwise indicated. Fresh cortex (0.1-1 g) from male Wistar rats (150-250 g) is homogenized for 5-10 s in 10 ml 20 mM Hepes pH: 7.4, with an Ultra-Turrax homogenizer. The homogenizer is rinsed with 10 ml of buffer and the combined suspension centrifuged for 15 min. at 40,000×g. The pellet is washed three times with buffer. In each step the pellet is homogenized as before in 2×10 ml of buffer and centrifuged for 10 min. at 40,000×g.
The final pellet is homogenized in 20 mM Hepes pH: 7.4 (100 ml per g of original tissue) and used for binding assay. Aliquots of 0.5 ml is added 25 μl of test solution and 25 μl of ^3H-Oxotremorine (1.0 nM, final concentration) mixed and incubated for 30 min. at 25° C. Non-specific binding is determined in triplicate using arecoline (1 μg/ml, final concentration) as the test substance. After incubation samples are added 5 ml of ice-cold buffer and poured directly onto Whatman GF/C glass fiber filters under suction and immediately washed 2 times with 5 ml of ice-cold buffer. The amount of radioactivity on the filters are determined by conventional liquid scintillation counting. Specific binding is total binding minus non specific binding.
Test substances are dissolved in 10 ml water (if necessary heated on a steambath for less than 5 min.) at a concentration of 2.2 mg/ml. 25-75% inhibition of specific binding must be obtained before calculation of IC50.
The test value will be given as IC50 (the concentration (nM) of the test substance which inhibits the specific binding of ^3H-Oxo by 50%).
(§2) IC50=(applied test substance concentration)×(Cx/Co−Cx)nM
(§3) where Co is specific binding in control assays and Cx is the specific binding in the test assay. (The calculations assume normal mass-action kinetics).

[2] = molecular target: T1, muscarinic receptors (M1-site, pirenzepine sensitive site) (Rattus norvegicus, UniProt P08482); assay: Inhibition of 3H-PRZ (pirenzepine, [N-methyl-3H]) binding to rat cerebral cortex membranes; settings: 1.0 nM 3H-Pirenzepine, 60 min at 20° C.
T1 construct: Fresh cortex (0.1-1 g) from male Wistar rats (150-200 g) is homogenized; from tissue; host or cells: rat (male Wistar) cerebral cortex membranes
T1 sequence (P08482 1-460): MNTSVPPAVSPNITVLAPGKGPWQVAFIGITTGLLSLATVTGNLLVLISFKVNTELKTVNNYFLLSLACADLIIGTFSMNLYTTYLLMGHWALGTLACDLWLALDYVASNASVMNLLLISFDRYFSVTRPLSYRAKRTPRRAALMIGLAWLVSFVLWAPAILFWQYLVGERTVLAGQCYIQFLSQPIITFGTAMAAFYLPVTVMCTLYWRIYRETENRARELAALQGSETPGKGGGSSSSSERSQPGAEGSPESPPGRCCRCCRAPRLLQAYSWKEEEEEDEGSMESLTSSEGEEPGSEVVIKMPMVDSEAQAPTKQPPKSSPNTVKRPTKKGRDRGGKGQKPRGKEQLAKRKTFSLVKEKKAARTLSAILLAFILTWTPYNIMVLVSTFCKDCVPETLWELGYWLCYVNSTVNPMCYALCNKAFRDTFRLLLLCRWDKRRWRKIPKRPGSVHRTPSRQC
Protocol: Furthermore the pharmacological properties of the compounds of the invention can also be illustrated by determining their capability to inhibit ^3H-PRZ (pirenzepine, [N-methyl-^3H]) binding to rat cerebral cortex membranes. Pirenzepine binds selectively to subtype of muscarinic receptors. Historically the type is named the M1-site, whereas pirenzepine sensitive site would be more appropriate. Although selective for M1-sites pirenzepine also interact with M2-sites.
as §1, with “rats (150-200” for “rats (150-250”, “5-10 s.” for “5-10 s”, “with 2×10” for “with 10”, “15 min” for “15 min.”, “in 3×10” for “in 2×10”, “10 min” for “10 min.”
The final pellet is homogenized in 20 mM Hepes pH: 7.4 (100 ml per g of original tissue) and used for binding assay. Aliquots of 0.5 ml is added 20 μl of test solution and 25 μl of ^3H-Pirenzepine (1.0 nM, final conc.), mixed and incubated for 60 min at 20° C. Non-specific binding is determined in triplicate using atropine (1 μg/ml, final conc.) as the test substance. After incubation samples are added 5 ml of ice-cold buffer and poured directly onto Whatman GF/C glass fiber filters under suction and immediately washed 2 times with 5 ml of ice-cold buffer. The amount of radioactivity on the filters are determined by conventional liquid scintillation counting. Specific binding is total binding minus non-specific binding.
Test substances are dissolved in 10 ml water, at a concentration of 0.22 mg/ml. 25-75% inhibition of specific binding must be obtained before calculation of IC50.
The test value will be given as IC50 (the concentration (nM) of the test substance which inhibits the specific binding of ^3H-PRZ by 50%).
as §2, §3

| SMILES | melting point | pIC50 [1] | pIC50 [2] |
| --- | --- | --- | --- |
| CCCSc1nsnc1OC1CN2CCC1C2 (stereo not drawn) (as salt: oxalate) [Compound 2, Endo 3-(3-propylthio-1,2,5-thiadiazol-4-yloxy)-1-azabicyclo[2.2.1]heptane, oxalate] | 136 to 137 °C | – | – |
| C(#Cc1ccccc1)COc1nsnc1OC1CN2CCC1C2 (stereo not drawn) (as salt: oxalate) [Compound 5, Endo 3-(3-[3-phenyl-2-propynyl-1-oxy]-1,2,5-thiadiazol-4-yloxy)-1-azabicyclo[2.2.1]heptane, oxalate] | 158 to 159 °C | – | – |
| COc1cccc(C#CCOc2nsnc2OC2CN3CCC2C3)c1 (stereo not drawn) (as salt: oxalate) [Compound 6, Endo 3-(3-[3-(3-methoxyphenyl)-2-propynyl-1-oxy]-1,2,5-thiadiazol-4-yloxy)-1-azabicyclo[2.2.1]heptane, oxalate] | 142 to 143 °C | – | – |
| CC(C)=CCOc1nsnc1OC1CN2CCC1C2 (stereo not drawn) (as salt: oxalate) [Compound 7, Endo 3-(3-[3-methyl-2-butenyl-1-oxy]-1,2,5-thiadiazol-4-yloxy)-1-azabicyclo[2.2.1]heptane, oxalate] | 112 to 115 °C | – | – |
| C(CC1CC1)Oc1nsnc1OC1CN2CCC1C2 (stereo not drawn) (as salt: oxalate) [Compound 8, Endo 3-(3-[2-cyclopropylethyl-1-oxy]-1,2,5-thiadiazol-4-yloxy)-1-azabicyclo[2.2.1]heptane, oxalate] | 132 to 133 °C | – | – |
| Fc1ccc(COc2nsnc2OC2CN3CCC2C3)cc1 (stereo not drawn) (as salt: oxalate) [Compound 9, Endo 3-(3-[4-fluorobenzyloxy]-1,2,5-thiadiazol-4-yloxy)-1-azabicyclo-[2.2.1]heptane, oxalate] | 144 to 145 °C | – | – |
| CC=CCOc1nsnc1OC1CN2CCC1C2 (stereo not drawn) (as salt: oxalate) [Compound 10, Endo 3-(3-[2-butenyl-1-oxy]-1,2,5-thiadiazol-4-yloxy)-1-azabicyclo[2.2.1]heptane, oxalate] | 129 to 131 °C | – | – |
| CC#CCOc1nsnc1OC1CN2CCC1C2 (stereo not drawn) (as salt: oxalate) [Compound 11, Endo 3-(3-[2-butynyl-1-oxy]-1,2,5-thiadiazol-4-yloxy)-1-azabicyclo[2.2.1]heptane, oxalate] | 194 to 196 °C | – | – |
| CSCCOc1nsnc1OC1CN2CCC1C2 (stereo not drawn) (as salt: oxalate) [Compound 12, Endo 3-(3-methylthioethoxy-1,2,5-thiadiazol-4-yloxy)-1-azabicyclo-[2.2.1]heptane, oxalate] | 117 to 119 °C | – | – |
| COCCOc1nsnc1OC1CN2CCC1C2 (stereo not drawn) (as salt: oxalate) [Compound 13, Endo 3-(3-methoxyethoxy-1,2,5-thiadiazol-4-yloxy)-1-azabicyclo[2.2.1]heptane, oxalate] | 139 to 141 °C | – | – |
| CC(C#Cc1ccc(F)cc1)=CCOc1nsnc1OC1CN2CCC1C2 (stereo not drawn) [Compound 21, Endo (Z)-3-(3-(5-(4-fluorophenyl)-3-methyl-2-penten-4-yn-1-yloxy)-1,2,5-thiadiazol-4-yloxy)-1-azabicyclo[2.2.1]heptane] | – | 6.52 | 7.00 |
| C(#Cc1cccnc1)COc1nsnc1OC1CN2CCC1C2 (stereo not drawn) [Compound 23, Endo 3-(3-(3-pyridyl)-2-propyn-1-yloxy)-1,2,5-thiadiazol-4-yloxy)-1-azabicyclo[2.2.1]heptane, dioxalate] | – | 8.80 | 7.89 |
| C(#Cc1ccccn1)COc1nsnc1OC1CN2CCC1C2 (stereo not drawn) [Compound 25, Endo 3-(3-(2-pyridyl)-2-propyn-1-yloxy)-1,2,5-thiadiazol-4-yloxy)-1-azabicyclo[2.2.1]heptane, dioxalate] | – | 8.77 | 8.35 |
| C(#Cc1ccoc1)COc1nsnc1OC1CN2CCC1C2 (stereo not drawn) [Compound 26, Endo 3-(3-(3-(3-furyl)-2-propyn-1-yloxy)-1,2,5-thiadiazol-4-yloxy)-1-azabicyclo[2.2.1]heptane, oxalate] | – | 8.89 | 8.41 |
| FC(F)(F)C(F)(F)C(F)(F)COc1nsnc1OC1CN2CCC1C2 (stereo not drawn) [Compound 27, Endo 3-(3-(2,2,3,3,4,4,4-heptafluorobutyl-1-oxy)-1,2,5-thiadiazol-4-yloxy)-1-azabicyclo[2.2.1]heptane, oxalate] | – | 8.08 | 8.28 |
| FC(F)(F)CCSc1nsnc1OC1CN2CCC1C2 (stereo not drawn) [Compound 29, Endo 3-(3-(3,3,3-trifluoropropylthio)-1,2,5-thiadiazol-4-yloxy)-1-azabicyclo-[2.2.1]heptane, oxalate] | – | 8.51 | 8.04 |
| N#CCCSc1nsnc1OC1CN2CCC1C2 (stereo not drawn) [Compound 32, Endo 3-(3-[2-cyanoethylthio]-1,2,5-thiadiazol-4-yloxy)-1-azabicyclo-[2.2.1]heptane, oxalate] | – | 8.51 | 7.47 |
| Fc1ccc(CSc2nsnc2OC2CN3CCC2C3)c(F)c1 (stereo not drawn) [Compound 33, Endo 3-(3-[2,4-difluorobenzylthio]-1,2,5-thiadiazol-4-yloxy)-1-azabicyclo-[2.2.1]heptane, oxalate] | – | 7.08 | 7.80 |
| C(#Cc1ccsc1)COc1nsnc1OC1CN2CCC1C2 (stereo not drawn) [Compound 36, Endo 3-(3-[3-(3-thienyl)-2-propyn-1-yloxy]-1,2,5-thiadiazol-4-yloxy)-1-azabicyclo[2.2.1]heptane, oxalate] | – | 9.00 | 8.33 |
| C(#Cc1cccs1)COc1nsnc1O[C@H]1CN2CC[C@@H]1C2 [Compound 37, Endo 3-(3-[3-(2-thienyl)-2-propyn-1-yloxy]-1,2,5-thiadiazol-4-yloxy)-1-azabicyclo[2.2.1]heptane, oxalate] | – | 8.66 | 8.06 |
| COc1cccc(C#CC(Oc2nsnc2OC2CN3CCC2C3)C(C)C)c1 (stereo not drawn) [Compound 39, Endo 3-(3-[1-(3-methoxyphenyl)-4-methyl-1-pentyn-3-yloxy]-1,2,5-thiadiazol-4-yloxy)-1-azabicyclo[2.2.1]heptane, oxalate] | – | 6.98 | 7.25 |
| FC(F)(F)COc1nsnc1OC1CN2CCC1C2 (stereo not drawn) [Compound 40, Endo 3-(3-[2,2,2-trifluoroethyl-1-oxy]-1,2,5-thiadiazol-4-yloxy)-1-azabicyclo[2.2.1]heptane, oxalate] | – | 8.74 | 7.37 |
